The target of this experiment is human α7 nicotinic acetylcholine receptor (α7 nAChR) (Homo sapiens, UniProt P36544). As to the kind of experiment: Automated patch-clamp electrophysiology functional assay (Assay A). It counts as cell-based. The following applies: HEK cell line stably expressing human RIC-3 and human α7, IonFlux HT whole-cell population patch, 40 μM acetylcholine. How it is done: The α7 nAChR positive allosteric modulator (PAM) activity of the present compounds may be tested using assays known in the art. The α7 nAChR PAMs described herein have activities in an automated patch-clamp electrophysiology functional assay as described in the examples. The assay was performed using the IonFlux HT in a whole-cell, population patch configuration. See Golden et al. Assay Drug Dev. Technol. (2011) 9:608-619. The compounds were assessed for their ability to modulate the function of the human […] nAChR stably expressed in a HEK cell line both in the presence, and in the absence of the natural 07 agonist acetylcholine. By performing a series of such measurements at different concentrations, the effective concentration of the α7 nAChR PAMs (EC50) was determined. See Spencer et al. Assay Drug Dev. Technol. (2012) 10:313-324.
Automated patch-clamp electrophysiology was performed using the IonFlux HT (Fluxion Biosciences Inc., San Francisco, Calif.) in the whole-cell, population patch configuration. Test compounds were assessed for their ability to modulate the function of the α7 nicotinic acetylcholine receptor both in the presence, and in the absence of the natural α7 agonist acetylcholine. A HEK cell line stably expressing both human RIC-3 and human α7 (PrecisION hnAChR α7/RIC-3, Eurofins Pharma, St. Charles, Mo.) was cultured in 175 cm^2 triple-layer tissue culture flasks to no more than 90% confluency in DMEM/F-12 growth media supplemented with 10% heat-inactivated fetal bovine serum, 1% non-essential amino acids, 0.625 μg/mL Puromycin, and 400 μg/mL Geneticin. Immediately prior to assay, cells were detached by first aspirating growth media, rinsing with Dulbecco's phosphate buffered saline, and then adding 10 mL of Accutase (Innovative Cell Technologies, San Diego, Calif.) to the flask and then incubating at 37° C. for 5 minutes. Detached cells were then recovered by the addition of 40 mL of CHO-serum-free media supplemented with 25 mM HEPES, and rocked gently in a 50 mL conical tube for 20 minutes prior to patch-clamp assay. After recovery, cells were pelleted by centrifugation at 1,000 RPM for 1 minute in a compact bench top centrifuge; recovery media was aspirated and cells were resuspended in external recording solution (150 mM NaCl, 5 mM KCl, 2 mM CaCl2, 1 mM MgCl2, 10 mM HEPES, 12 mM dextrose) to a density of 5.0×10^6 cells/mL. The cell suspension was added to the cell inlet wells on an IonFlux HT population patch plate which had previously been rinsed and primed with deionized H2O. Test compounds were serially diluted in DMSO and then resuspended to the final test concentration in external recording solution, with, or without 40 μM acetylcholine added to the external recording solution; test compounds were then transferred to the IonFlux HT population patch plate. Internal recording solution (110 mM TrisPO4, 28 mM TrisBase, 0.1 mM CaCl2, 2 mM MgCl2, 11 mM EGTA, 4 mM MgATP) was added to the internal recording solution inlet wells on the IonFlux HT patch plate previously loaded with cells and test compounds, and the plate loaded into the IonFlux HT instrument. A protocol was executed on the IonFlux HT to trap the cells, break into the cells, and establish the whole-cell recording configuration; cells were voltage-clamped at a holding potential of −60 mV for the duration of the experiment, all experiments were conducted at room temperature, and the IonFlux HT injection pressure was 8 psi for solution applications. Upon establishing the whole-cell configuration, external recording solution was perfused into the recording chambers for 120 seconds and then 40 μM acetylcholine was applied for 1 second and immediately washed off with external recording solution for 60 seconds. The 40 μM acetylcholine-evoked α7 current served as the current response to which subsequent test compound effects, in the presence, or in the absence of 40 μM acetylcholine would be quantified relative to. […]

Read-outs that look alike come from different tables or passages of the source. A value given as a limit tells only on which side of the number the result lay.

Sequence of human α7 nicotinic acetylcholine receptor (α7 nAChR) (P36544 23-502): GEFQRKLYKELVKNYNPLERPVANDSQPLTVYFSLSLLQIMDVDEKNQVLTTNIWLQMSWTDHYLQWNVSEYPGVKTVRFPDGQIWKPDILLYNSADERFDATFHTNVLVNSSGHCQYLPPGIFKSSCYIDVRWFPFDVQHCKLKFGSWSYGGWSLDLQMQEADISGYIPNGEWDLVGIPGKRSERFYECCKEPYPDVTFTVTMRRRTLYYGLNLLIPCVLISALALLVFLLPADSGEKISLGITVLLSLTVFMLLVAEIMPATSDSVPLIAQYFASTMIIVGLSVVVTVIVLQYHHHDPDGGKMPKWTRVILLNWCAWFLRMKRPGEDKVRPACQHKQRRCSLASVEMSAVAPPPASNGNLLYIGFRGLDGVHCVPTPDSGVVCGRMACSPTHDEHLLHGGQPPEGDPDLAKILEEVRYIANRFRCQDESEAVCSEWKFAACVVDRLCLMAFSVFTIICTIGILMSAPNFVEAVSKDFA

Regarding `NS(=O)(=O)c1ccc(C2CC2c2ccc3cc(C(F)(F)F)nnc3c2)cc1` (racemic) [Example E5, 4-[2-[3-(Trifluoromethyl)cinnolin-7-yl]cyclopropyl]benzenesulfonamide], under “read-out: α7 nAChR Potency”, the EC50 fell in the range of 500 to 5000 nM. As for `Cn1ncc2cc(C3CC3c3ccc(S(N)(=O)=O)cc3)ccc21` (racemic) [Example E9, 4-[2-(1-Methylindazol-5-yl)cyclopropyl]benzenesulfonamide], the EC50 runs as follows: (read-out: α7 nAChR EC50) 2800 nM; (read-out: α7 nAChR Potency) 500 to 5000 nM. The corresponding values for `CC1(C)[C@@H](c2ccc(S(N)(=O)=O)cc2)[C@@H]1c1nc2ccccc2o1` [Example A4, 4-[(1S,3S)-3-(1,3-Benzoxazol-2-yl)-2,2-dimethyl-cyclopropyl]benzenesulfonamide] are 280 nM and 100 to 500 nM.

`NS(=O)(=O)c1ccc([C@H]2[C@H](c3nc4ccccc4s3)C2(F)F)cc1` [Example A8, 4-[(1R,3S)-3-(1,3-Benzothiazol-2-yl)-2,2-difluoro-cyclopropyl]benzenesulfonamide]: the EC50 is 38 nM (read-out: α7 nAChR EC50) and not above 100 nM (read-out: α7 nAChR Potency). The like results for `CC1(C)OC([C@H]2[C@H](c3ccc(S(N)(=O)=O)cc3)C2(F)F)=Nc2ccccc21` [Example 13, 4-[(1R,3R)-3-(4,4-Dimethyl-4H-3,1-benzoxazin-2-yl)-2,2-difluorocyclopropyl]benzenesulfonamide] were, in that order, 1800 nM and 500 to 5000 nM. The like results for `CC1(C)[C@H](c2ccc(S(N)(=O)=O)cc2)[C@H]1c1nc2ccncc2o1` [Example D2, 4-[(1R,3R)-2,2-Dimethyl-3-oxazolo[5,4-c]pyridin-2-yl-cyclopropyl]benzenesulfonamide] were, in that order, 3400 nM and 500 to 5000 nM. The like results for `NS(=O)(=O)c1ccc(C2CC2c2ccc3cc(Cl)ncc3c2)cc1` (racemic) [Example E6, 4-[2-(3-Chloro-7-isoquinolyl)cyclopropyl]benzenesulfonamide] were, in that order, 1200 nM and 500 to 5000 nM.

For `NS(=O)(=O)c1ccc([C@@H]2C[C@H]2c2nc3ccccc3o2)cc1` [Example 5, 4-[(1R,2R)-2-(1,3-Benzoxazol-2-yl)cyclopropyl]benzenesulfonamide], the EC50 is 160 nM (read-out: α7 nAChR EC50) and 100 to 500 nM (read-out: α7 nAChR Potency). The corresponding values for `CC1(C)[C@@H](c2ccc(S(N)(=O)=O)cc2)[C@@H]1c1nc2ccccc2s1` [Example 9] are 350 nM and 100 to 500 nM. The like results for `CN1CCOc2cc(C3CC3c3ccc(S(N)(=O)=O)cc3)cnc21` (racemic) [Example E13, 4-[2-(4-Methyl-2,3-dihydropyrido[3,2-b][1,4]oxazin-7-yl)cyclopropyl]benzenesulfonamide] were, in that order, 880 nM and 500 to 5000 nM. The like results for `CC1(C)[C@H](c2ccc(S(N)(=O)=O)cc2)[C@H]1c1nc2ccccc2s1` [Example B3, 4-[(1R,3R)-3-(1,3-Benzothiazol-2-yl)-2,2-dimethyl-cyclopropyl]benzenesulfonamide] were, in that order, 3400 nM and 500 to 5000 nM. Consider `CC1(C)[C@H](c2ccc(S(N)(=O)=O)cc2)[C@H]1c1nc2cc(Cl)ccc2o1` [Example B6, 4-[(1R,3R)-3-(5-Chloro-1,3-benzoxazol-2-yl)-2,2-dimethyl-cyclopropyl]benzenesulfonamide], for which the EC50 (read-out: α7 nAChR EC50) came out at 200 nM and the EC50 (read-out: α7 nAChR Potency) was in the range of 100 to 500 nM. With `NS(=O)(=O)c1ccc([C@@H]2[C@@H](c3nc4ccccc4o3)C2(F)F)cc1` [Example B11, 4-[(1S,3S)-3-(1,3-Benzoxazol-2-yl)-2,2-difluoro-cyclopropyl]benzenesulfonamide], the EC50 runs as follows: (read-out: α7 nAChR EC50) 430 nM; (read-out: α7 nAChR Potency) 100 to 500 nM. For the compound `NS(=O)(=O)c1ccc(C2CC2c2cc3ccncc3s2)cc1` (racemic) [Example E7, 4-(2-Thieno[2,3-c]pyridin-2-ylcyclopropyl)benzenesulfonamide], the EC50 (read-out: α7 nAChR Potency) was in the range of 500 to 5000 nM. For `NS(=O)(=O)c1ccc([C@@H]2C[C@H]2c2ncc3ccccc3n2)cc1` [Example 3, 4-[(1R,2R)-2-(Quinazolin-2-yl)cyclopropyl]benzenesulfonamide], the EC50 by setting is: (read-out: α7 nAChR EC50) 370 nM; (read-out: α7 nAChR Potency) 100 to 500 nM. The like results for `CC1(C)[C@@H](c2ccc(S(N)(=O)=O)cc2)[C@@H]1c1nc2cc(Cl)ccc2o1` [Example A6, 4-[(1S,3S)-3-(5-Chloro-1,3-benzoxazol-2-yl)-2,2-dimethyl-cyclopropyl]benzenesulfonamide] were, in that order, 430 nM and 100 to 500 nM. For `NS(=O)(=O)c1ccc([C@@H]2C[C@H]2c2cnc3ccccc3n2)cc1` (relative stereo) [Example 7, 4-[trans-2-(Quinoxalin-2-yl)cyclopropyl]benzenesulfonamide], the EC50 is 1300 nM (read-out: α7 nAChR EC50) and 500 to 5000 nM (read-out: α7 nAChR Potency).

`COc1ccc2oc([C@@H]3[C@@H](c4ccc(S(N)(=O)=O)cc4)C3(C)C)nc2c1` [Example B10, 4-[(1R,3R)-3-(5-Methoxy-1,3-benzoxazol-2-yl)-2,2-dimethyl-cyclopropyl]benzenesulfonamide]: the EC50 was 660 nM (read-out: α7 nAChR EC50) and 500 to 5000 nM (read-out: α7 nAChR Potency). `CC1(C)[C@H](c2ccc(S(N)(=O)=O)cc2)[C@H]1c1nc2c(o1)CCCC2` [Example D3, 4-[(1R,3R)-2,2-Dimethyl-3-(4,5,6,7-tetrahydro-1,3-benzoxazol-2-yl)cyclopropyl]benzenesulfonamide]: the EC50 (read-out: α7 nAChR Potency) fell in the range of 500 to 5000 nM. Still for that read-out and setting: to `NS(=O)(=O)c1ccc(C2CC2c2ccc3ccncc3n2)cc1` (racemic) [Example E8, 4-[2-(1,7-Naphthyridin-2-yl)cyclopropyl]benzenesulfonamide] belongs 500 to 5000 nM.

As to `CC1(C)[C@H](c2ccc(S(N)(=O)=O)cc2)[C@H]1c1cn2ncccc2n1` [Example 8, 4-((1R,3R)-3-(Imidazo[1,2-b]pyridazin-2-yl)-2,2-dimethylcyclopropyl)benzenesulfonamide], the EC50 by setting is: (read-out: α7 nAChR EC50) 3800 nM; (read-out: α7 nAChR Potency) 500 to 5000 nM. For `NS(=O)(=O)c1ccc(C2CC2c2cc3n(n2)CCCC3)cc1` (racemic) [Example E10, 4-[2-(4,5,6,7-Tetrahydropyrazolo[1,5-a]pyridin-2-yl)cyclopropyl]benzenesulfonamide], the EC50 (read-out: α7 nAChR Potency) was 5000 to 50000 nM. `CC1(C)[C@H](c2ccc(S(N)(=O)=O)cc2)[C@H]1c1ncc2c(n1)CCCC2` [Example 12, 4-[(R,3R)-2,2-Dimethyl-3-(5,6,7,8-tetrahydroquinazolin-2-yl)cyclopropyl]benzenesulfonamide]: the EC50 is, setting by setting: (read-out: α7 nAChR EC50) 2500 nM; (read-out: α7 nAChR Potency) 500 to 5000 nM. `NS(=O)(=O)c1ccc([C@H]2[C@H](c3nc4ccccc4[nH]3)C2(F)F)cc1` [Example A9, 4-[(1R,3R)-3-(1H-Benzimidazol-2-yl)-2,2-difluorocyclopropyl]benzenesulfonamide]: under “read-out: α7 nAChR Potency”, the EC50 is 500 to 5000 nM.

For `CC1(C)[C@@H](c2ccc(S(N)(=O)=O)cc2)[C@@H]1c1nc2c(F)cc(F)cc2s1` [Example A3, 4-[(1S,3S)-3-(4,6-Difluoro-1,3-benzothiazol-2-yl)-2,2-dimethyl-cyclopropyl]benzenesulfonamide], the EC50 reads like this: (read-out: α7 nAChR EC50) 960 nM; (read-out: α7 nAChR Potency) 500 to 5000 nM. For the compound `NS(=O)(=O)c1ccc([C@H]2[C@H](c3nc4c(o3)CCCC4)C2(F)F)cc1` [Example C4, 4-[(1R,3R)-2,2-Difluoro-3-(4,5,6,7-tetrahydro-1,3-benzoxazol-2-yl)cyclopropyl]benzenesulfonamide], the EC50 (read-out: α7 nAChR Potency) lay within 500 to 5000 nM.

(Values after patent US10870630B2, “Substituted bicyclic heteroaryl allosteric modulators of nicotinic acetylcholine receptors” (Merck Sharp & Dohme Corp., priority 2016, dated 2020).)
